From patent US20240317735A1, “HYDROISOQUINOLINE OR HYDRONAPHTHYRIDINE COMPOUNDS FOR THE TREATMENT OF AUTOIMMUNE DISEASE” (Hoffmann-La Roche Inc., priority 2020, published 2024)

Tests used:
[1] = Human microsome stability assay; format: in vitro ADME; settings: 1 μM test compound, 0.5 mg/mL liver microsomal protein, 37° C., pH 7.4
Description: The human microsomal stability assay is used for early assessment of metabolic stability of a test compound in human liver microsomes.
Human liver microsomes (Cat. NO.: 452117, Corning, USA; Cat. NO.: H2610, Xenotech, USA) were preincubated with test compound for 10 minutes at 37° C. in 100 mM potassium phosphate buffer, pH 7.4. The reactions were initiated by adding NADPH regenerating system. The final incubation mixtures contained 1 μM test compound, 0.5 mg/mL liver microsomal protein, 1 mM MgCl2, 1 mM NADP, 1 unit/mL isocitric dehydrogenase and 6 mM isocitric acid in 100 mM potassium phosphate buffer, pH 7.4. After incubation times of 0, 3, 6, 9, 15 and 30 minutes at 37° C., 300 μL of cold acetonitrile (including internal standard) was added to 100 μL incubation mixture to terminate the reaction. Following precipitation and centrifugation, the amount of compound remaining in the samples were determined by LC-MS/MS. Controls of no NADPH regenerating system at zero and 30 minutes were also prepared and analyzed.

human TLR8 = biological target: T1, human TLR8 (Homo sapiens, UniProt Q9NR97); assay: HEK293-Blue-hTLR-8 cells assay (SEAP reporter, R848 stimulation); format: cell-based; settings: HEK293-Blue-hTLR8 cells, R848, 20 hrs; read-out: HEK/hTLR8 IC50
T1 construct: host or cells: HEK293 (HEK-Blue hTLR8)
T1 sequence (Q9NR97 27-1041): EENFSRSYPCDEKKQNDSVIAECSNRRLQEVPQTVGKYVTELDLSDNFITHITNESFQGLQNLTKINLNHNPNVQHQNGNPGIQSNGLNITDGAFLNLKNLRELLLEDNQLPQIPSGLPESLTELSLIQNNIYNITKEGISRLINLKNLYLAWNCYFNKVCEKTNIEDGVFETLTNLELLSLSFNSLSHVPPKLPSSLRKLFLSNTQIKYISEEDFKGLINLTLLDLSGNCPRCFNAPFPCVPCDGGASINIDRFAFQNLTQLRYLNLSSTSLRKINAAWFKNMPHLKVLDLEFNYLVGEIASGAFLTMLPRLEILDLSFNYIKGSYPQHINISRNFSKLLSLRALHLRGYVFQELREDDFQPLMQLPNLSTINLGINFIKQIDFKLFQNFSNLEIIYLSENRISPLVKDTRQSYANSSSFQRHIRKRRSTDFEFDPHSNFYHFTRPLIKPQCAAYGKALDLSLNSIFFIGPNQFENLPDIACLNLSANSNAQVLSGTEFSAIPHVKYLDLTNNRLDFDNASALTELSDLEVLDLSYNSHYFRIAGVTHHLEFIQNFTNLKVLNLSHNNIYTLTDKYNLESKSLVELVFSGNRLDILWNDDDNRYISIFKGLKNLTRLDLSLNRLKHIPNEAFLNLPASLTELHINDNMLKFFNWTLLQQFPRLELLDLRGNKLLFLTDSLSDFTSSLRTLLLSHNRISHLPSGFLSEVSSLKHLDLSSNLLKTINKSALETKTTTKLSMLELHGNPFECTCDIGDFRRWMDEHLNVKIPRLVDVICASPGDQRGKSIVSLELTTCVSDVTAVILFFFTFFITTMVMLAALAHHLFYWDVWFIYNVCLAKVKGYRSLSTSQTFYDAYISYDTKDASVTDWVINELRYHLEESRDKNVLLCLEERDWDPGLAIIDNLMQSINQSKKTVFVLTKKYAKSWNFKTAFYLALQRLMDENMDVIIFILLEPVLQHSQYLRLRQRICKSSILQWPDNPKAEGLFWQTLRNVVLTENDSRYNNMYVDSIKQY
Description: The following tests were carried out in order to determine the activity of the compounds of formula (I) and (Ia) in HEK293-Blue-hTLR-7/8/9 cells assay.
A stable HEK293-Blue-hTLR-8 cell line was purchased from InvivoGen (Cat. #: hkb-htlr8, San Diego, California, USA). These cells were originally designed for studying the stimulation of human TLR8 by monitoring the activation of NF-κB. A SEAP (secreted embryonic alkaline phosphatase) reporter gene was placed under the control of the IFN-β minimal promoter fused to five NF-κB and AP-1-binding sites. The SEAP was induced by activating NF-κB and AP-1 via stimulating HEK-Blue hTLR8 cells with TLR8 ligands. Therefore the reporter expression was declined by TLR8 antagonist under the stimulation of a ligand, such as R848, for incubation of 20 hrs. The cell culture supernatant SEAP reporter activity was determined using QUANTI-Blue™ kit (Cat. #: rep-qb1, Invivogen, San Diego, Ca, USA) at a wavelength of 640 nm, a detection medium that turns purple or blue in the presence of alkaline phosphatase.
HEK293-Blue-hTLR8 cells were incubated at a density of 250,000˜450,000 cells/mL in a volume of 170 μL in a 96-well plate in Dulbecco's Modified Eagle's medium (DMEM) containing 4.5 g/L glucose, […] penicillin, […], […] Normocin, 2 mM L-glutamine, 10% (v/v) heat-inactivated fetal bovine serum with addition of 20 μL test compound in a serial dilution in the presence of final DMSO at 1% and 10 μL of 60 uM R848 in above DMEM, perform incubation under 37° C. in a C02 incubator for 20 hrs. Then 20 μL of the supernatant from each well was incubated with 180 μL Quanti-blue substrate solution at 37° C. for 2 hrs and the absorbance was read at 620-655 nm using a spectrophotometer. The signaling pathway that TLR8 activation leads to downstream NF-κB activation has been widely accepted, and therefore similar reporter assay was modified for evaluating TLR8 antagonist.

Clearance of Human microsome [1] | IC50 (human TLR8) | SMILES
8.2 mL/min/kg | 6 nM | C[C@H]1CN(c2ccnc3c2cnn3C)Cc2ccc(N3C[C@@H]4CCNCC4C3=O)cc21 (relative stereo) [Example 55, cis-2-[(4R)-4-methyl-2-(1-methylpyrazolo[3,4-b]pyridin-4-yl)-3,4-dihydro-1H-isoquinolin-6-yl]-3a,4,5,6,7,7a-hexahydro-1H-pyrrolo[3,4-c]pyridin-3-one]
7.0 mL/min/kg | 6 nM | C[C@H]1CN(c2ccnc3c2cnn3C)Cc2ccc(N3C[C@@]4(CCNC4)CC3=O)cc21 (single isomer, unassigned) [Example 53]
9.9 mL/min/kg | 11 nM | C[C@H]1CN(c2ccnc3c2cnn3C)Cc2ccc(N3CCN(c4cc5c(cn4)CCNC5)CC3)cc21 [Example 9, 7-[4-[(4R)-4-methyl-2-(1-methylpyrazolo[3,4-b]pyridin-4-yl)-3,4-dihydro-1H-isoquinolin-6-yl]piperazin-1-yl]-1,2,3,4-tetrahydro-2,6-naphthyridine]
6.2 mL/min/kg | 2 nM | C[C@H]1CN(c2ccnc3c2cnn3C)Cc2ccc(N3CCC(O)(CN(C)C)CC3)cc21 [Example 13, 4-[(dimethylamino)methyl]-1-[(4R)-4-methyl-2-(1-methylpyrazolo[3,4-b]pyridin-4-yl)-3,4-dihydro-1H-isoquinolin-6-yl]piperidin-4-ol]
6.2 mL/min/kg | 1 nM | Cc1cc(N2Cc3ccc(N4CCC(O)(CN(C)C)CC4)cc3[C@@H](C)C2)c2cnn(C)c2n1 [Example 14, 4-[(dimethylamino)methyl]-1-[(4R)-2-(1,6-dimethylpyrazolo[3,4-b]pyridin-4-yl)-4-methyl-3,4-dihydro-1H-isoquinolin-6-yl]piperidin-4-ol]
6.2 mL/min/kg | 3 nM | CC1CN(c2ccc3c(c2)[C@@H](C)CN(c2ccnc4c2cnn4C)C3)CCN1 (stereo partly drawn) [Example 15, (4R)-4-methyl-6-(3-methylpiperazin-1-yl)-2-(1-methylpyrazolo[3,4-b]pyridin-4-yl)-3,4-dihydro-1H-isoquinoline]
8.2 mL/min/kg | 4 nM | C[C@H]1CN(c2ccnc3c2cnn3C)Cc2ccc(N3CC4(CCNCC4)CC3=O)cc21 [Example 16, 2-[(4R)-4-methyl-2-(1-methylpyrazolo[3,4-b]pyridin-4-yl)-3,4-dihydro-1H-isoquinolin-6-yl]-2,8-diazaspiro[4.5]decan-3-one]
10.1 mL/min/kg | 14 nM | C[C@H]1CN(c2ccnc3c2cnn3C)Cc2ccc(N3CC4(CNCCO4)C3)cc21 [Example 21, 2-[(4R)-4-methyl-2-(1-methylpyrazolo[3,4-b]pyridin-4-yl)-3,4-dihydro-1H-isoquinolin-6-yl]-5-oxa-2,8-diazaspiro[3.5]nonane]
6.2 mL/min/kg | 16 nM | CCn1ncc2c(N3Cc4ccc(N5CCNCC5)cc4[C@@H](C)C3)ccnc21 [Example 22, (4R)-2-(1-ethylpyrazolo[3,4-b]pyridin-4-yl)-4-methyl-6-piperazin-1-yl-3,4-dihydro-1H-isoquinoline]
7.5 mL/min/kg | 7 nM | CO[C@@H]1CN(c2ccc3c(c2)[C@@H](C)CN(c2cc(C)nc4c2cnn4C)C3)C[C@H]1N [Example 23, (3R,4R)-4-methoxy-1-[(4R)-2-(1,6-dimethylpyrazolo[3,4-b]pyridin-4-yl)-4-methyl-3,4-dihydro-1H-isoquinolin-6-yl]pyrrolidin-3-amine]

The next lines start with the molecule.

SMILES | Clearance of Human microsome [1] | IC50 (human TLR8)
C[C@H]1CN(c2ccnc3c2cnn3C)Cc2ccc(N3CCNCC3)cc21 [Example 1, (4R)-4-methyl-2-(1-methylpyrazolo[3,4-b]pyridin-4-yl)-6-piperazin-1-yl-3,4-dihydro-1H-isoquinoline] | 6.2 mL/min/kg | 2 nM
Cc1cc(N2Cc3ccc(N4CCNCC4)cc3[C@@H](C)C2)c2cnn(C)c2n1 [Example 2, (4R)-2-(1,6-dimethylpyrazolo[3,4-b]pyridin-4-yl)-4-methyl-6-piperazin-1-yl-3,4-dihydro-1H-isoquinoline] | 9.0 mL/min/kg | 1 nM
Cn1ncc2c(N3CCc4cc(N5CCNCC5)ccc4C3)ccnc21 [Example 3, 2-(1-methylpyrazolo[3,4-b]pyridin-4-yl)-6-piperazin-1-yl-3,4-dihydro-1H-isoquinoline] | 9.5 mL/min/kg | 56 nM
C[C@H]1CN(c2ccnc3c2cnn3C)Cc2ccc(N3CCN(C(=O)C4CCNCC4)CC3)cc21 [Example 7, 4-piperidyl-[4-[(4R)-4-methyl-2-(1-methylpyrazolo[3,4-b]pyridin-4-yl)-3,4-dihydro-1H-isoquinolin-6-yl]piperazin-1-yl]methanone] | 10.3 mL/min/kg | 17 nM
C[C@H]1CN(c2ccnc3c2cnn3C)Cc2ccc(N3CCN(C(=O)C4CCCN4)CC3)cc21 (stereo partly drawn) [Example 8, pyrrolidin-2-yl-[4-[(4R)-4-methyl-2-(1-methylpyrazolo[3,4-b]pyridin-4-yl)-3,4-dihydro-1H-isoquinolin-6-yl]piperazin-1-yl]methanone] | 7.0 mL/min/kg | 6 nM
C[C@H]1CN(c2ccnc3c2cnn3C)Cc2ccc(OC[C@H]3CNCCN3)cc21 [Example 18, (4R)-4-methyl-2-(1-methylpyrazolo[3,4-b]pyridin-4-yl)-6-[[(2R)-piperazin-2-yl]methoxy]-3,4-dihydro-1H-isoquinoline] | 10.5 mL/min/kg | 4 nM
C[C@H]1CN(c2ccnc3c2cnn3C)Cc2ccc(OC[C@@H]3CNCCN3)cc21 [Example 19, (4R)-4-methyl-2-(1-methylpyrazolo[3,4-b]pyridin-4-yl)-6-[[(2S)-piperazin-2-yl]methoxy]-3,4-dihydro-1H-isoquinoline] | 7.7 mL/min/kg | 4 nM
CO[C@@H]1CN(c2ccc3c(c2)[C@@H](C)CN(c2ccnc4c2cnn4C)C3)C[C@H]1N [Example 20, (3R,4R)-4-methoxy-1-[(4R)-4-methyl-2-(1-methylpyrazolo[3,4-b]pyridin-4-yl)-3,4-dihydro-1H-isoquinolin-6-yl]pyrrolidin-3-amine] | 10.2 mL/min/kg | 17 nM
